The experiment addresses T1, Dihydrofolate reductase (Candida glabrata (strain ATCC 2001 / BCRC 20586 / JCM 3761 / NBRC 0622 / NRRL Y-65 / CBS 138), UniProt Q6FPH0).
T1 sequence (Q6FPH0 whole entry): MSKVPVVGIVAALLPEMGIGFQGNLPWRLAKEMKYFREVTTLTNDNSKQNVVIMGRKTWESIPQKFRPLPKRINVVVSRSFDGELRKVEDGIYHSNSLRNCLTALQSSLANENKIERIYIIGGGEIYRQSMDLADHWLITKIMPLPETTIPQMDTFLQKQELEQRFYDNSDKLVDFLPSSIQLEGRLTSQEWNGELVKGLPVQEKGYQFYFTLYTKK
Nature of the experiment: Enzyme Inhibition Assay. Conditions: 25 °C. The source says:
Enzyme inhibition assay using CgDHFR and hDHFR performed at 25 degree Celsius by monitoring the rate of enzyme-dependent NADPH oxidation at an absorbance of 340 nm over several minutes.

pIC50: −log10 of the molar value.

As usually defined, the pIC50 is −log10 of the IC50, conventionally taken in molar units. Higher therefore signals a small IC50.

`COc1cc([C@@H](O)C#Cc2c(C)nc(N)nc2N)cc(OC)c1OC` [Propargyl-substituted antifolate, 9]: the pIC50 is 7.41. With `COc1ccc(OC)c(CC#Cc2cnc(N)nc2N)c1` [5-[3-(2,5-dimethoxyphenyl)prop-1-yn-1-yl]pyrimidine-2,4-diamine], the pIC50 is 7.68. Next, `COc1cc(CC#Cc2cnc(N)nc2N)cc(OC)c1OC` [JMC517532 Compound 3]: 7.66; `COc1ccc(OC)c(CC#Cc2c(C)nc(N)nc2N)c1` [Propargyl-linked, 10]: 7.49; `CCc1nc(N)nc(N)c1C#CCc1cc(OC)ccc1OC` [5-[3-(2,5-dimethoxyphenyl)prop-1-yn-1-yl]-6-ethylpyrimidine-2,4-diamine]: 8.09. Regarding `COc1cc([C@@H](C#Cc2c(C)nc(N)nc2N)OC)cc(OC)c1OC` [JMC517532 Compound 10], the pIC50 was 7.52.

`COc1cc(C(C)C#Cc2c(C)nc(N)nc2N)cc(OC)c1OC` (configuration not stated) [Propargyl-substituted antifolate, 8] showed a pIC50 of 7.60.
